Reference: patent US7485641B2, “Substituted 3-amino-pyrrolidino-4-lactams” (Pfizer, Inc., priority 2006, dated 2009)
pIC50: −log10 of the molar value. Where a name gives a salt, the structure may show the parent alone.

The compounds below were run against T1, DPP-IV (Homo sapiens, UniProt P27487) (assay: In vitro assay for dipeptidyl peptidase inhibition). Settings: at 300 nM; n-value given in brackets.
T1 construct: purchased Enzyme Systems Products SPE-01
Assay type: biochemical

T1 sequence (P27487 whole entry, species assumed): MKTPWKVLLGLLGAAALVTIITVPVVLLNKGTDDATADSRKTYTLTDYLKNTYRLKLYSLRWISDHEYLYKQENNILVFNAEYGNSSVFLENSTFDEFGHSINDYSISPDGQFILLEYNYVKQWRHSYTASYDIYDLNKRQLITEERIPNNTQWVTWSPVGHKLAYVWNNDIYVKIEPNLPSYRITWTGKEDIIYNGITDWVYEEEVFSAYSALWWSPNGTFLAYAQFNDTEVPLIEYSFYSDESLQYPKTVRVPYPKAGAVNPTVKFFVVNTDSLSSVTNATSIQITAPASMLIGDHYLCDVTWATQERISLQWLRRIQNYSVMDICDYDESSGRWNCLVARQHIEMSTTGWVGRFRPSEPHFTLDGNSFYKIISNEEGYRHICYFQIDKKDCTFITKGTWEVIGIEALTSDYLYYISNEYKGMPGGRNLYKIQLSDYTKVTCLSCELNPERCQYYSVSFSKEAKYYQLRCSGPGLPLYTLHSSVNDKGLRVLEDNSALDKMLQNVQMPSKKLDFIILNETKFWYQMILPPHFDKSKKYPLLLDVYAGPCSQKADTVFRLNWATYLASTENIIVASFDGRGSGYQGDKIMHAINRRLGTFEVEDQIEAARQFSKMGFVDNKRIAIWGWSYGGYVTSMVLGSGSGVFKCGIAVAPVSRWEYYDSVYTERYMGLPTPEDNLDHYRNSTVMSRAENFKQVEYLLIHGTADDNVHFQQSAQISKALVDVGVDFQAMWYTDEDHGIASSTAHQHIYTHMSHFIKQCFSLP

| SMILES | DPP-IV Percent Inhibition at 300 nM |
| --- | --- |
| COC1(C)CCN(c2ncnc(N3C[C@H](N)[C@@H](N4CCCCC4=O)C3)n2)CC1.O=C(O)C(F)(F)F [Example 36, 1-((3S,4S)-4-Amino-1-(4-(4-methoxy-4-methylpiperidin-1-yl)-1,3,5-triazin-2-yl)pyrrolidin-3-yl)piperidin-2-onetrifluoroacetate] | 22.2%(4) |
| N[C@H]1CN(c2ncnc(N3CC(Oc4ccc(F)c(F)c4)C3)n2)C[C@@H]1N1CCCCC1=O.O=C(O)C(F)(F)F [Example 49, 1-((3S,4S)-4-Amino-1-(4-(3-(3,4-difluorophenoxy)azetidin-1-yl)-1,3,5-triazin-2-yl)pyrrolidin-3-yl)piperidin-2-onetrifluoroacetate] | 19.6%(4) |
| COc1cc2c(cc1OC)CN(c1ncnc(N3C[C@H](N)[C@@H](N4CCCCC4=O)C3)n1)CC2.O=C(O)C(F)(F)F [Example 59, 1-((3S,4S)-4-Amino-1-(4-(6,7-dimethoxy-3,4-dihydroisoquinolin-2(1H)-yl)-1,3,5-triazin-2-yl)pyrrolidin-3-yl)piperidin-2-onetrifluoroacetate] | 44.3%(4) |

Same assay, conditions: at 300 nM; n-value given in brackets; read-out: DPP-IV Percent Inhibition at 300 nM

| inhibition at 0.3 µM | SMILES |
| --- | --- |
| 6.8% | CC1(C)CN(c2ncnc(N3C[C@H](N)[C@@H](N4CCCCC4=O)C3)n2)CC1(C)C [Example 46, 1-((3S,4S)-4-amino-1-(4-(3,3,4,4-tetramethylpyrrolidin-1-yl)-1,3,5-triazin-2-yl)pyrrolidin-3-yl)piperidin-2-one] |
| 32.6% | N[C@H]1CN(c2cc(N3Cc4cc(Cl)c(Cl)cc4C3)ncn2)C[C@@H]1N1CCCCC1=O [Example 54, 1-((3S,4S)-4-amino-1-(6-(5,6-dichloroisoindolin-2-yl)pyrimidin-4-yl)pyrrolidin-3-yl)piperidin-2-one] |

Same assay, conditions: n-value given in brackets; read-out: DPP-IV IC50

| pIC50 | SMILES |
| --- | --- |
| 6.96 | N#Cc1ccccc1OC1CCN(c2ncnc(N3C[C@H](N)[C@@H](N4CCCCC4=O)C3)n2)CC1 [Example 37, 2-(1-(4-((3S,4S)-3-Amino-4-(2-oxopiperidin-1-yl)pyrrolidin-1-yl)-1,3,5-triazin-2-yl)piperidin-4-yloxy)benzonitriletrifluoroacetate] |
| 6.69 | N[C@H]1CN(c2ncnc(N3CC[C@@H](O)C3)n2)C[C@@H]1N1CCCCC1=O [Example 38, 1-((3S,4S)-4-Amino-1-(4-((R)-3-hydroxypyrrolidin-1-yl)-1,3,5-triazin-2-yl)pyrrolidin-3-yl)piperidin-2-onetrifluoroacetate] |
| 6.49 | CO[C@@H]1CCN(c2ncnc(N3C[C@H](N)[C@@H](N4CCCCC4=O)C3)n2)C1 [Example 39, 1-((3S,4S)-4-Amino-1-(4-((R)-3-methoxypyrrolidin-1-yl)-1,3,5-triazin-2-yl)pyrrolidin-3-yl)piperidin-2-onetrifluoroacetate] |
| 6.25 | CO[C@H]1CCN(c2ncnc(N3C[C@H](N)[C@@H](N4CCCCC4=O)C3)n2)C1 [Example 40, 1-((3S,4S)-4-Amino-1-(4-((S)-3-methoxypyrrolidin-1-yl)-1,3,5-triazin-2-yl)pyrrolidin-3-yl)piperidin-2-onetrifluoroacetate] |
| 7.05 | CC(=O)N[C@H]1CCN(c2ncnc(N3C[C@H](N)[C@@H](N4CCCCC4=O)C3)n2)C1 [Example 41, N-((S)-1-{4-[(3S,4S)-3-Amino-4-(2-oxo-piperidin-1-yl)-pyrrolidin-1-yl]-[1,3,5]triazin-2-yl}-pyrrolidin-3-yl)-acetamidetrifluoroacetate] |
| 7.10 | N[C@H]1CN(c2ncnc(N3CC[C@@H](NC(=O)C(F)(F)F)C3)n2)C[C@@H]1N1CCCCC1=O [Example 42, N-((R)-1-(4-((3S,4S)-3-Amino-4-(2-oxopiperidin-1-yl)pyrrolidin-1-yl)-1,3,5-triazin-2-yl)pyrrolidin-3-yl)-2,2,2-trifluoroacetamidetrifluoroacetate] |
| 6.50 | CC1(O)CCN(c2ncnc(N3C[C@H](N)[C@@H](N4CCCCC4=O)C3)n2)C1 (stereo partly drawn) [Example 44, 1-((3S,4S)-4-amino-1-(4-(3-hydroxy-3-methylpyrrolidin-1-yl)-1,3,5-triazin-2-yl)pyrrolidin-3-yl)piperidin-2-onetrifluoroacetate] |
| 5.76 | N[C@H]1CN(c2cc(N3CC(F)C3)ncn2)C[C@@H]1N1CCCC1=O [Example 48, 1-((3S,4S)-4-Amino-1-(6-(3-fluoroazetidin-1-yl)pyrimidin-4-yl)pyrrolidin-3-yl)pyrrolidin-2-onedihydrochloride] |
| 7.72 | N[C@H]1CN(c2ncnc(N3Cc4ccccc4C3)n2)C[C@@H]1N1CC(F)(F)CCC1=O [Example 50, 1-{(3S,4S)-4-amino-1-[4-(1,3-dihydro-isoindol-2-yl)-[1,3,5]triazin-2-yl]-pyrrolidin-3-yl}-5,5-difluoro-piperidin-2-one] |
| 7.32 | N[C@H]1CN(c2ncnc(N3Cc4ccccc4C3)n2)C[C@@H]1N1CCCCC1=O [Example 51, 1-{(3S,4S)-4-Amino-1-[4-(1,3-dihydro-isoindol-2-yl)-[1,3,5]triazin-2-yl]-pyrrolidin-3-yl}-piperidin-2-onetrifluoroacetate] |
| 6.75 | N[C@H]1CN(c2cc(N3Cc4ccccc4C3)ncn2)C[C@@H]1N1CCCC1=O [Example 52, 1-((3S,4S)-4-Amino-1-(6-(isoindolin-2-yl)pyrimidin-4-yl)pyrrolidin-3-yl)pyrrolidin-2-onehydrochloride] |
| 7.03 | N[C@H]1CN(c2cc(N3Cc4ccc(C(F)(F)F)cc4C3)ncn2)C[C@@H]1N1CCCCC1=O [Example 53, 1-((3S,4S)-4-amino-1-(6-(5-(trifluoromethyl)isoindolin-2-yl)pyrimidin-4-yl)pyrrolidin-3-yl)piperidin-2-onetrifluoroacetate] |
| 7.00 | Cc1ccc(C)c2c1CN(c1cc(N3C[C@H](N)[C@@H](N4CCCCC4=O)C3)ncn1)C2 [Example 55, 1-{(3S,4S)-4-Amino-1-[6-(4,7-dimethyl-1,3-dihydro-isoindol-2-yl)-pyrimidin-4-yl]-pyrrolidin-3-yl}-piperidin-2-one] |
| 7.07 | N[C@H]1CN(c2ncnc(N3CCc4ccccc4C3)n2)C[C@@H]1N1CCCCC1=O [Example 56, 1-{(3S,4S)-4-Amino-1-[4-(3,4-dihydro-1H-isoquinolin-2-yl)-[1,3,5]triazin-2-yl]-pyrrolidin-3-yl}-piperidin-2-onetrifluoroacetate] |
| 6.50 | N[C@H]1CN(c2cc(N3CCc4ccccc4C3)ncn2)C[C@@H]1N1CCCC1=O [Example 57, 1-((3S,4S)-4-Amino-1-(6-(3,4-dihydroisoquinolin-2(1H)-yl)pyrimidin-4-yl)pyrrolidin-3-yl)pyrrolidin-2-onehydrochloride] |
| 7.94 | CNS(=O)(=O)c1cccc2c1CCN(c1ncnc(N3C[C@H](N)[C@@H](N4CCCCC4=O)C3)n1)C2 [Example 58, 2-(4-((3S,4S)-3-Amino-4-(2-oxopiperidin-1-yl)pyrrolidin-1-yl)-1,3,5-triazin-2-yl)-N-methyl-1,2,3,4-tetrahydroisoquinoline-5-sulfonamidetrifluoroacetate] |

| SMILES | pIC50 |
| --- | --- |
| N[C@H]1CN(c2ncnc(N3CCCCC3)n2)C[C@@H]1N1CCCCC1=O [Example 47, 1-[(3S,4S)-4-Amino-1-(4-piperidin-1-yl-[1,3,5]triazin-2-yl)-pyrrolidin-3-yl]-piperidin-2-onetrifluoroacetate] | 6.50 |
